{"source": "the supplement of paper PMC10307832", "assay_in_all_cases": "relative viability (nuclei count vs DMSO), 5 days (fraction); higher = more cells survive", "key": {"LC-2-ad": {"system": "LC-2-ad", "in_short": "(§1)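 One day after seeding in 1536-well plates, lung cancer cell lines were dosed by pin tool. Dosing was either single-drug or a fixed anchor-drug dose plus five library-drug doses (not always all listed) in √10 steps. After 5 days, nuclei were stained in one fix-and-stain step and counted on 4× images, and relative viability is the nuclei count of treated wells over that of vehicle wells, given as the median of duplicate plates.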"}, "NCI-H1944": {"system": "NCI-H1944", "in_short": "as §1"}, "HARA": {"system": "HARA", "in_short": "as §1"}, "NCI-H23": {"system": "NCI-H23", "in_short": "as §1"}, "HOP-62": {"system": "HOP-62", "in_short": "as §1"}, "NCI-H358": {"system": "NCI-H358", "in_short": "as §1"}, "EMC-BAC-2": {"system": "EMC-BAC-2", "in_short": "as §1"}, "NCI-H1793": {"system": "NCI-H1793", "in_short": "as §1"}, "NCI-H2228": {"system": "NCI-H2228", "in_short": "as §1"}, "NCI-H2126": {"system": "NCI-H2126", "in_short": "as §1"}, "ChaGo-K-1": {"system": "ChaGo-K-1", "in_short": "as §1"}}, "data": [{"smiles": "COc1cc2nccc(Oc3ccc(NC(=O)Nc4cc(C)on4)c(Cl)c3)c2cc1OC", "note": "[Tivozanib] + Nc1nc2[nH]cc(CCc3ccc(C(=O)N[C@@H](CCC(=O)O)C(=O)O)cc3)c2c(=O)[nH]1 [Pemetrexed] (partner 0.2 µM)", "values": [{"measurement": "relative viability", "setting": "LC-2-ad; first compound 0.01581 µM", "result": 0.289}, {"measurement": "relative viability", "setting": "LC-2-ad; first compound 0.05 µM", "result": 0.274}, {"measurement": "relative viability", "setting": "LC-2-ad; first compound 0.1581 µM", "result": 0.286}, {"measurement": "relative viability", "setting": "LC-2-ad; first compound 0.5 µM", "result": 0.245}, {"measurement": "relative viability", "setting": "NCI-H1944; first compound 0.005 µM", "result": 0.545}, {"measurement": "relative viability", "setting": "NCI-H1944; first compound 0.01581 µM", "result": 0.568}, {"measurement": "relative viability", "setting": "NCI-H1944; first compound 0.05 µM", "result": 0.652}, {"measurement": "relative viability", "setting": "NCI-H1944; first compound 0.1581 µM", "result": 0.659}, {"measurement": "relative viability", "setting": "NCI-H1944; first compound 0.5 µM", "result": 0.611}, {"measurement": "relative viability", "setting": "HARA; first compound 0.005 µM", "result": 0.275}, {"measurement": "relative viability", "setting": "HARA; first compound 0.01581 µM", "result": 0.259}, {"measurement": "relative viability", "setting": "HARA; first compound 0.05 µM", "result": 0.249}, {"measurement": "relative viability", "setting": "HARA; first compound 0.1581 µM", "result": 0.243}, {"measurement": "relative viability", "setting": "HARA; first compound 0.5 µM", "result": 0.245}, {"measurement": "relative viability", "setting": "NCI-H23; first compound 0.005 µM", "result": 0.588}, {"measurement": "relative viability", "setting": "NCI-H23; first compound 0.01581 µM", "result": 0.771}, {"measurement": "relative viability", "setting": "NCI-H23; first compound 0.05 µM", "result": 0.787}, {"measurement": "relative viability", "setting": "NCI-H23; first compound 0.5 µM", "result": 0.54}, {"measurement": "relative viability", "setting": "HOP-62; first compound 0.005 µM", "result": 0.353}, {"measurement": "relative viability", "setting": "HOP-62; first compound 0.01581 µM", "result": 0.301}, {"measurement": "relative viability", "setting": "HOP-62; first compound 0.05 µM", "result": 0.245}, {"measurement": "relative viability", "setting": "HOP-62; first compound 0.1581 µM", "result": 0.36}, {"measurement": "relative viability", "setting": "HOP-62; first compound 0.5 µM", "result": 0.232}, {"measurement": "relative viability", "setting": "NCI-H358; first compound 0.005 µM", "result": 0.181}, {"measurement": "relative viability", "setting": "NCI-H358; first compound 0.01581 µM", "result": 0.18}, {"measurement": "relative viability", "setting": "NCI-H358; first compound 0.05 µM", "result": 0.161}, {"measurement": "relative viability", "setting": "NCI-H358; first compound 0.1581 µM", "result": 0.175}, {"measurement": "relative viability", "setting": "NCI-H358; first compound 0.5 µM", "result": 0.176}, {"measurement": "relative viability", "setting": "EMC-BAC-2; first compound 0.005 µM", "result": 0.463}, {"measurement": "relative viability", "setting": "EMC-BAC-2; first compound 0.01581 µM", "result": 0.465}, {"measurement": "relative viability", "setting": "EMC-BAC-2; first compound 0.05 µM", "result": 0.431}, {"measurement": "relative viability", "setting": "EMC-BAC-2; first compound 0.1581 µM", "result": 0.507}, {"measurement": "relative viability", "setting": "EMC-BAC-2; first compound 0.5 µM", "result": 0.398}, {"measurement": "relative viability", "setting": "NCI-H1793; first compound 0.005 µM", "result": 0.643}, {"measurement": "relative viability", "setting": "NCI-H1793; first compound 0.01581 µM", "result": 0.854}, {"measurement": "relative viability", "setting": "NCI-H1793; first compound 0.05 µM", "result": 1.04}, {"measurement": "relative viability", "setting": "NCI-H1793; first compound 0.5 µM", "result": 0.999}, {"measurement": "relative viability", "setting": "NCI-H2228; first compound 0.005 µM", "result": 0.31}, {"measurement": "relative viability", "setting": "NCI-H2228; first compound 0.01581 µM", "result": 0.32}, {"measurement": "relative viability", "setting": "NCI-H2228; first compound 0.05 µM", "result": 0.369}, {"measurement": "relative viability", "setting": "NCI-H2228; first compound 0.1581 µM", "result": 0.346}, {"measurement": "relative viability", "setting": "NCI-H2228; first compound 0.5 µM", "result": 0.315}, {"measurement": "relative viability", "setting": "NCI-H2126; first compound 0.005 µM", "result": 0.692}, {"measurement": "relative viability", "setting": "NCI-H2126; first compound 0.01581 µM", "result": 0.684}, {"measurement": "relative viability", "setting": "NCI-H2126; first compound 0.05 µM", "result": 0.691}, {"measurement": "relative viability", "setting": "NCI-H2126; first compound 0.1581 µM", "result": 0.582}, {"measurement": "relative viability", "setting": "NCI-H2126; first compound 0.5 µM", "result": 0.589}, {"measurement": "relative viability", "setting": "ChaGo-K-1; first compound 0.005 µM", "result": 0.235}, {"measurement": "relative viability", "setting": "ChaGo-K-1; first compound 0.01581 µM", "result": 0.271}, {"measurement": "relative viability", "setting": "ChaGo-K-1; first compound 0.05 µM", "result": 0.253}, {"measurement": "relative viability", "setting": "ChaGo-K-1; first compound 0.1581 µM", "result": 0.273}, {"measurement": "relative viability", "setting": "ChaGo-K-1; first compound 0.5 µM", "result": 0.264}]}]}
